Measured values reported in PMC12090182, “Repurposing of the RIPK1-Selective Benzo[1,4]oxazepin-4-one Scaffold for the Development of a Type III LIMK1/2 Inhibitor” (ACS Chemical Biology, 2025).
Where two headings read alike, the source gives them in different places.

System: U2OS cells
Assay type: cell-based
Conditions: U2OS
In short: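 HEK293T and U2OS cells (DMEM) and MRC-9 fibroblasts (EMEM) exposed to compounds at 1 and 10 μM. Live-cell confocal imaging of cell shape and fluorescence before and at 12, 24 and 48 h. Normalized to 0.1% DMSO; biological duplicates with SEM.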

[1] = 1 µM, 0 h, biological replicate 1
[2] = 1 µM, 0 h, biological replicate 2
[3] = 1 µM, 12 h, biological replicate 1
[4] = 1 µM, 12 h, biological replicate 2
[5] = 1 µM, 24 h, biological replicate 1
[6] = 1 µM, 24 h, biological replicate 2
[7] = 1 µM, 48 h, biological replicate 1
[8] = 1 µM, 48 h, biological replicate 2
[9] = 10 µM, 0 h, biological replicate 1
[10] = 10 µM, 0 h, biological replicate 2
[11] = 10 µM, 12 h, biological replicate 1
[12] = 10 µM, 12 h, biological replicate 2
[13] = 10 µM, 24 h, biological replicate 1
[14] = 10 µM, 24 h, biological replicate 2
[15] = 10 µM, 48 h, biological replicate 1
[16] = 10 µM, 48 h, biological replicate 2

Compound: CC(C)C(=O)Nc1ncc(-c2cc(C(F)F)nn2-c2c(Cl)cccc2Cl)s1 [LIMKi3]
- Cell count normalized to cells treated with DMSO control [1]: 1.067
- Cell count per well [1]: 222
- Population Fragmented Nuclei (%) [1]: 50.47%
- Population Healthy Nuclei (%) [1]: 44.34%
- Population Pyknosed Nuclei (%) [1]: 5.19%
- Population apoptotic cell (%) [1]: 81.82%
- Population cell that influence microtubule strucutre (%) [1]: 3.19%
- Population with increased mitochondrial mass (%) [1]: 4.26%
- Population with membrane disruption (%) [1]: 8.51%
- Cell count normalized to cells treated with DMSO control [2]: 1.097
- Cell count per well [2]: 94
- Population Fragmented Nuclei (%) [2]: 27.47%
- Population Healthy Nuclei (%) [2]: 63.74%
- Population Pyknosed Nuclei (%) [2]: 8.79%
- Population apoptotic cell (%) [2]: 100.00%
- Population cell that influence microtubule strucutre (%) [2]: 5.17%
- Population with increased mitochondrial mass (%) [2]: 1.72%
- Population with membrane disruption (%) [2]: 5.17%
- Cell count normalized to cells treated with DMSO control [3]: 0.9868
- Cell count per well [3]: 261
- Population Fragmented Nuclei (%) [3]: 35.71%
- Population Healthy Nuclei (%) [3]: 57.94%
- Population Pyknosed Nuclei (%) [3]: 6.35%
- Population apoptotic cell (%) [3]: 81.25%
- Population cell that influence microtubule strucutre (%) [3]: 3.42%
- Population with increased mitochondrial mass (%) [3]: 2.05%
- Population with membrane disruption (%) [3]: 6.85%
- Cell count normalized to cells treated with DMSO control [4]: 1.091
- Cell count per well [4]: 129
- Population Fragmented Nuclei (%) [4]: 18.25%
- Population Healthy Nuclei (%) [4]: 76.98%
- Population Pyknosed Nuclei (%) [4]: 4.76%
- Population apoptotic cell (%) [4]: 100.00%
- Population cell that influence microtubule strucutre (%) [4]: 4.12%
- Population with increased mitochondrial mass (%) [4]: 4.12%
- Population with membrane disruption (%) [4]: 5.15%
- Cell count normalized to cells treated with DMSO control [5]: 0.9303
- Cell count per well [5]: 290
- Population Fragmented Nuclei (%) [5]: 30.77%
- Population Healthy Nuclei (%) [5]: 62.24%
- Population Pyknosed Nuclei (%) [5]: 6.99%
- Population apoptotic cell (%) [5]: 80.00%
- Population cell that influence microtubule strucutre (%) [5]: 2.25%
- Population with increased mitochondrial mass (%) [5]: 3.37%
- Population with membrane disruption (%) [5]: 5.06%
- Cell count normalized to cells treated with DMSO control [6]: 1.125
- Cell count per well [6]: 160
- Population Fragmented Nuclei (%) [6]: 21.52%
- Population Healthy Nuclei (%) [6]: 67.72%
- Population Pyknosed Nuclei (%) [6]: 10.76%
- Population apoptotic cell (%) [6]: 70.59%
- Population cell that influence microtubule strucutre (%) [6]: 1.87%
- Population with increased mitochondrial mass (%) [6]: 2.80%
- Population with membrane disruption (%) [6]: 4.67%
- Cell count normalized to cells treated with DMSO control [7]: 0.8403
- Cell count per well [7]: 374
- Population Fragmented Nuclei (%) [7]: 26.78%
- Population Healthy Nuclei (%) [7]: 61.48%
- Population Pyknosed Nuclei (%) [7]: 11.75%
- Population apoptotic cell (%) [7]: 86.05%
- Population cell that influence microtubule strucutre (%) [7]: 4.44%
- Population with increased mitochondrial mass (%) [7]: 2.67%
- Population with membrane disruption (%) [7]: 6.22%
- Cell count normalized to cells treated with DMSO control [8]: 0.9779
- Cell count per well [8]: 202
- Population Fragmented Nuclei (%) [8]: 17.50%
- Population Healthy Nuclei (%) [8]: 70.50%
- Population Pyknosed Nuclei (%) [8]: 12.00%
- Population apoptotic cell (%) [8]: 87.50%
- Population cell that influence microtubule strucutre (%) [8]: 4.26%
- Population with increased mitochondrial mass (%) [8]: 2.13%
- Population with membrane disruption (%) [8]: 6.38%
- Cell count normalized to cells treated with DMSO control [9]: 1.081
- Cell count per well [9]: 225
- Population Fragmented Nuclei (%) [9]: 43.12%
- Population Healthy Nuclei (%) [9]: 50.46%
- Population Pyknosed Nuclei (%) [9]: 6.42%
- Population apoptotic cell (%) [9]: 78.57%
- Population cell that influence microtubule strucutre (%) [9]: 4.55%
- Population with increased mitochondrial mass (%) [9]: 3.64%
- Population with membrane disruption (%) [9]: 7.27%
- Cell count normalized to cells treated with DMSO control [10]: 1.132
- Cell count per well [10]: 97
- Population Fragmented Nuclei (%) [10]: 17.53%
- Population Healthy Nuclei (%) [10]: 71.13%
- Population Pyknosed Nuclei (%) [10]: 11.34%
- Population apoptotic cell (%) [10]: 90.91%
- Population cell that influence microtubule strucutre (%) [10]: 5.80%
- Population with increased mitochondrial mass (%) [10]: 10.14%
- Population with membrane disruption (%) [10]: 5.80%
- Cell count normalized to cells treated with DMSO control [11]: 0.8507
- Cell count per well [11]: 225
- Population Fragmented Nuclei (%) [11]: 35.24%
- Population Healthy Nuclei (%) [11]: 45.24%
- Population Pyknosed Nuclei (%) [11]: 19.52%
- Population apoptotic cell (%) [11]: 63.41%
- Population cell that influence microtubule strucutre (%) [11]: 84.21%
- Population with increased mitochondrial mass (%) [11]: 51.58%
- Population with membrane disruption (%) [11]: 77.89%
- Cell count normalized to cells treated with DMSO control [12]: 0.9469
- Cell count per well [12]: 112
- Population Fragmented Nuclei (%) [12]: 12.15%
- Population Healthy Nuclei (%) [12]: 68.22%
- Population Pyknosed Nuclei (%) [12]: 19.63%
- Population apoptotic cell (%) [12]: 57.14%
- Population cell that influence microtubule strucutre (%) [12]: 86.30%
- Population with increased mitochondrial mass (%) [12]: 68.49%
- Population with membrane disruption (%) [12]: 67.12%
- Cell count normalized to cells treated with DMSO control [13]: 0.7058
- Cell count per well [13]: 220
- Population Fragmented Nuclei (%) [13]: 35.92%
- Population Healthy Nuclei (%) [13]: 37.86%
- Population Pyknosed Nuclei (%) [13]: 26.21%
- Population apoptotic cell (%) [13]: 55.56%
- Population cell that influence microtubule strucutre (%) [13]: 78.21%
- Population with increased mitochondrial mass (%) [13]: 65.38%
- Population with membrane disruption (%) [13]: 65.38%
- Cell count normalized to cells treated with DMSO control [14]: 0.7383
- Cell count per well [14]: 105
- Population Fragmented Nuclei (%) [14]: 11.11%
- Population Healthy Nuclei (%) [14]: 58.59%
- Population Pyknosed Nuclei (%) [14]: 30.30%
- Population apoptotic cell (%) [14]: 60.00%
- Population cell that influence microtubule strucutre (%) [14]: 75.86%
- Population with increased mitochondrial mass (%) [14]: 65.52%
- Population with membrane disruption (%) [14]: 53.45%
- Cell count normalized to cells treated with DMSO control [15]: 0.528
- Cell count per well [15]: 235
- Population Fragmented Nuclei (%) [15]: 37.96%
- Population Healthy Nuclei (%) [15]: 28.70%
- Population Pyknosed Nuclei (%) [15]: 33.33%
- Population apoptotic cell (%) [15]: 68.06%
- Population cell that influence microtubule strucutre (%) [15]: 77.42%
- Population with increased mitochondrial mass (%) [15]: 54.84%
- Population with membrane disruption (%) [15]: 80.65%
- Cell count normalized to cells treated with DMSO control [16]: 0.6342
- Cell count per well [16]: 131
- Population Fragmented Nuclei (%) [16]: 20.83%
- Population Healthy Nuclei (%) [16]: 49.17%
- Population Pyknosed Nuclei (%) [16]: 30.00%
- Population apoptotic cell (%) [16]: 77.78%
- Population cell that influence microtubule strucutre (%) [16]: 77.97%
- Population with increased mitochondrial mass (%) [16]: 54.24%
- Population with membrane disruption (%) [16]: 67.80%
